pIC50: −log10 of the molar value. Read-outs that look alike come from different tables or passages of the source. Starred links: 1 amine or outer side, 2 acyl side, 3 side chain; linkers in the order of their positions; H or OH if unused. Non-standard residues stand in square brackets, D forms with d. Residues, ends and D or L forms follow the SMILES beside them. Phe(4-(5-CO2H-2-pyrimidyl)) = N[C@@H](Cc1ccc(-c2ncc(C(=O)O)cn2)cc1)C(=O)O; dPro(4R-(4-pyridylmethyl)) = O=C(O)[C@H]1C[C@@H](Cc2ccncc2)CN1; Trp(βS-Me,4-F) = C[C@@H](c1c[nH]c2cccc(F)c12)[C@H](N)C(=O)O; Bip(4'-COOH) = N[C@@H](Cc1ccc(-c2ccc(C(=O)O)cc2)cc1)C(=O)O; dPro(4R-Bzl(4-F)) = O=C(O)[C@H]1C[C@@H](Cc2ccc(F)cc2)CN1; dPro(3S-(4-F-Bn)) = O=C(O)[C@@H]1NCC[C@@H]1Cc1ccc(F)cc1; Ala(pyrimidin-5-yl) = N[C@@H](Cc1cncnc1)C(=O)O; Phe(4-COOH) = N[C@@H](Cc1ccc(C(=O)O)cc1)C(=O)O; dαMeDab = C[C@](CCN[*:3])(N[*:1])C(=O)[*:2]; Pro(cis-4-F) = O=C(O)[C@@H]1C[C@H](F)CN1; Phe(4-F) = N[C@@H](Cc1ccc(F)cc1)C(=O)O; d(αMeD) = C[C@@](N)(CC(=O)O)C(=O)O; 4Pal = N[C@@H](Cc1ccncc1)C(=O)O; αMeD = C[C@](N)(CC(=O)O)C(=O)O; Dab = NCC[C@H](N)C(=O)O; Aib = CC(C)(N)C(=O)O
Target: T1, IL-1β (Homo sapiens, UniProt P01584)
T1 construct: purchased BioLegend 579404
Experiment: IL-6 assay in MRC5 cells: inhibition of IL-1β induced IL-6 secretion (AlphaLISA)
Type: cell-based
Details: inhibition of IL-1β induced IL-6 secretion in MRC5 cells, read-out: MRC5 IC50
Method in brief: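 Compound was pre-incubated 1 h at ambient temperature with recombinant human IL-1β at 2λ EC80 before adding human lung fibroblast MRC5 cells (3000/well) in EMEM with 0.025% BSA. After overnight culture at 37 °C, 5% CO2, secreted IL-6 in conditioned medium was measured by AlphaLISA; IC50 from 4-parameter logistic fits.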

T1 sequence (P01584 117-269): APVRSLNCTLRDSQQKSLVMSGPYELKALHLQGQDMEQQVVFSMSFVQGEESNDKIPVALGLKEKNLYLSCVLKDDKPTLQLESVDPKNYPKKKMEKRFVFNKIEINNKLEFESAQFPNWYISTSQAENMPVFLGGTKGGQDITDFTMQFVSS

C[C@@H](c1c[nH]c2cccc(F)c12)[C@@H]1NC(=O)[C@@H]2C[C@H](F)CN2C(=O)CNC(=O)[C@H](Cc2ccc(C(=O)O)cc2)NC(=O)[C@H](Cc2ccncc2)NC(=O)[C@H](Cc2ccc(-c3ccc(C(=O)O)cc3)cc2)NC(=O)[C@H]2C[C@@H](Cc3ccc(F)cc3)CN2C(=O)CNC(=O)[C@H](CCN)NC(=O)[C@H](CCC(N)=O)NC(=O)[C@H](Cc2cncnc2)NC(=O)C(C)(C)NC(=O)[C@H](Cc2c[nH]c3ccccc23)NC(=O)[C@H](CO)NC(=O)[C@@](C)(CCN)NC1=O [Example 131] (cyclo([Bip(4'-COOH)][4Pal][Phe(4-COOH)]G[Pro(cis-4-F)][Trp(βS-Me,4-F)][dαMeDab]SW[Aib][Ala(pyrimidin-5-yl)]Q[Dab]G[dPro(4R-Bzl(4-F))]))
pIC50: 10.72

C[C@@H](c1c[nH]c2cccc(F)c12)[C@@H]1NC(=O)[C@@H]2C[C@H](F)CN2C(=O)CNC(=O)[C@H](Cc2ccc(C(=O)O)cc2)NC(=O)[C@H](Cc2ccncc2)NC(=O)[C@H](Cc2ccc(-c3ccc(C(=O)O)cc3)cc2)NC(=O)[C@H]2C[C@@H](Cc3ccc(F)cc3)CN2C(=O)CNC(=O)[C@H](CCN)NC(=O)[C@H](CCC(N)=O)NC(=O)[C@H](Cc2cncnc2)NC(=O)[C@@](C)(CCN)NC(=O)[C@H](Cc2c[nH]c3ccccc23)NC(=O)[C@H](CO)NC(=O)C(C)(C)NC1=O [Example 142] (cyclo([Bip(4'-COOH)][4Pal][Phe(4-COOH)]G[Pro(cis-4-F)][Trp(βS-Me,4-F)][Aib]SW[dαMeDab][Ala(pyrimidin-5-yl)]Q[Dab]G[dPro(4R-Bzl(4-F))]))
pIC50: 10.72

C[C@@H](c1c[nH]c2cccc(F)c12)[C@@H]1NC(=O)[C@@H]2C[C@H](F)CN2C(=O)CNC(=O)[C@H](Cc2ccc(C(=O)O)cc2)NC(=O)[C@H](Cc2ccncc2)NC(=O)[C@H](Cc2ccc(-c3ncc(C(=O)O)cn3)cc2)NC(=O)[C@H]2C[C@@H](Cc3ccncc3)CN2C(=O)CNC(=O)[C@H](CCN)NC(=O)[C@H](CCC(N)=O)NC(=O)[C@H](Cc2cncnc2)NC(=O)[C@](C)(CC(=O)O)NC(=O)[C@H](Cc2c[nH]c3ccccc23)NC(=O)[C@H](CO)NC(=O)C(C)(C)NC1=O [Example 187] (cyclo([Phe(4-(5-CO2H-2-pyrimidyl))][4Pal][Phe(4-COOH)]G[Pro(cis-4-F)][Trp(βS-Me,4-F)][Aib]SW[αMeD][Ala(pyrimidin-5-yl)]Q[Dab]G[dPro(4R-(4-pyridylmethyl))]))
pIC50: 10.82

C[C@@H](c1c[nH]c2cccc(F)c12)[C@@H]1NC(=O)[C@@H]2C[C@H](F)CN2C(=O)CNC(=O)[C@H](Cc2ccc(C(=O)O)cc2)NC(=O)[C@H](Cc2ccncc2)NC(=O)[C@H](Cc2ccc(F)cc2)NC(=O)[C@H]2[C@@H](Cc3ccc(F)cc3)CCN2C(=O)CNC(=O)[C@H](CCN)NC(=O)[C@H](CCC(N)=O)NC(=O)[C@H](Cc2cncnc2)NC(=O)[C@@](C)(CC(=O)O)NC(=O)[C@H](Cc2c[nH]c3ccccc23)NC(=O)[C@H](CO)NC(=O)C(C)(C)NC1=O [Example 277] (cyclo([Phe(4-F)][4Pal][Phe(4-COOH)]G[Pro(cis-4-F)][Trp(βS-Me,4-F)][Aib]SW[d(αMeD)][Ala(pyrimidin-5-yl)]Q[Dab]G[dPro(3S-(4-F-Bn))]))
pIC50 (compound pre-incubated 1 hour with recombinant human IL-1β): 10.64

C[C@@H](c1c[nH]c2cccc(F)c12)[C@@H]1NC(=O)[C@@H]2C[C@H](F)CN2C(=O)CNC(=O)[C@H](Cc2ccc(C(=O)O)cc2)NC(=O)[C@H](Cc2ccncc2)NC(=O)[C@H](Cc2ccc(-c3ccc(C(=O)O)cc3)cc2)NC(=O)[C@H]2C[C@@H](Cc3ccc(F)cc3)CN2C(=O)CNC(=O)[C@H](CCCCN)NC(=O)[C@H](CCC(N)=O)NC(=O)[C@H](Cc2cncnc2)NC(=O)C(C)(C)NC(=O)[C@H](Cc2c[nH]c3ccccc23)NC(=O)[C@H](CCC(=O)O)NC(=O)C(C)(C)NC1=O [Example 9] (cyclo([Bip(4'-COOH)][4Pal][Phe(4-COOH)]G[Pro(cis-4-F)][Trp(βS-Me,4-F)][Aib]EW[Aib][Ala(pyrimidin-5-yl)]QKG[dPro(4R-Bzl(4-F))]))
pIC50: 10.55

Reference: patent US20260242419A1, “A CYCLIC PEPTIDE FOR TRAPPING INTERLEUKIN-1 BETA” (Merck Sharp & Dohme LLC, priority 2023, published 2026)
